Reference: PubChem BioAssay AID1259407 (Chemical Carcinogenesis Research Information System (CCRIS), 2018)
Calls of active or inactive are those of the source. No rule for the calls is given here.

System: CCRIS mutagenicity, Ames/micronucleus/aberration tests
Assay: CCRIS mutagenicity studies
[1] = Test System: AMES SALMONELLA TYPHIMURIUM, Strain/Indicator: TA98, Metabolic Activation: NONE, Method: STANDARD PLATE
[2] = Test System: AMES SALMONELLA TYPHIMURIUM, Strain/Indicator: TA100, Metabolic Activation: NONE, Method: STANDARD PLATE
[3] = Test System: AMES SALMONELLA TYPHIMURIUM, Strain/Indicator: TA98, Metabolic Activation: NONE, Method: PREINCUBATION
[4] = Test System: AMES SALMONELLA TYPHIMURIUM, Strain/Indicator: TA98, Metabolic Activation: RAT, LIVER, S-9, AROCLOR 1254, Method: STANDARD PLATE
[5] = Test System: AMES SALMONELLA TYPHIMURIUM, Strain/Indicator: TA100, Metabolic Activation: NONE, Method: PREINCUBATION
[6] = Test System: AMES SALMONELLA TYPHIMURIUM, Strain/Indicator: TA100, Metabolic Activation: RAT, LIVER, S-9, AROCLOR 1254, Method: STANDARD PLATE

## O=C1O[C@H]([C@H](O)CO)C(O)=C1O
End Point: IN VIVO MICRONUCLEUS, Test System: BONE MARROW POLYCHROMATIC ERYTHROCYTES, Species: MOUSE, Strain/Sex: DDY/MALE, Route: IP
  mutagenic call: inactive; negative
Test System: AMES SALMONELLA TYPHIMURIUM, Strain/Indicator: TA97, Metabolic Activation: NONE, Method: PREINCUBATION
  mutagenic call: inactive; negative
Test System: AMES SALMONELLA TYPHIMURIUM, Strain/Indicator: TA97, Metabolic Activation: RAT, LIVER, S-9, AROCLOR 1254, Method: PREINCUBATION
  mutagenic call: inactive; negative
Test System: AMES SALMONELLA TYPHIMURIUM, Strain/Indicator: TA102, Metabolic Activation: NONE, Method: PREINCUBATION
  mutagenic call: inactive; negative
Test System: AMES SALMONELLA TYPHIMURIUM, Strain/Indicator: TA102, Metabolic Activation: RAT, LIVER, S-9, AROCLOR 1254, Method: PREINCUBATION
  mutagenic call: inactive; negative

## CC(C)(C)c1ccc(/C=C/c2ccc(N)cc2)cc1
[1]
  mutagenic call: inactive; negative
Test System: AMES SALMONELLA TYPHIMURIUM, Strain/Indicator: TA98, Metabolic Activation: RAT, LIVER, S-9, AROCLOR, Method: STANDARD PLATE
  mutagenic call: inactive; negative
[2]
  mutagenic call: inactive; negative
Test System: AMES SALMONELLA TYPHIMURIUM, Strain/Indicator: TA100, Metabolic Activation: RAT, LIVER, S-9, AROCLOR, Method: STANDARD PLATE
  mutagenic call: inactive; negative

## CN1CCC[C@H]1c1cccnc1
End Point: IN VITRO MICRONUCLEUS, Test System: HUMAN GINGIVAL FIBROBLASTS, Metabolic Activation: NONE
  mutagenic call: active; positive
End Point: In vivo micronucleus, Test System: Bone marrow polychromatic erythrocytes, Species: Mouse, Strain/Sex: Swiss/Female, Route: Oral
  mutagenic call: inactive; negative
Test System: AMES SALMONELLA TYPHIMURIUM, Strain/Indicator: TA97, Metabolic Activation: NONE, Method: STANDARD PLATE
  mutagenic call: inactive; negative
Test System: AMES SALMONELLA TYPHIMURIUM, Strain/Indicator: TA97, Metabolic Activation: RAT, LIVER, S-9, AROCLOR 1254, Method: STANDARD PLATE
  mutagenic call: inactive; negative
[3]
  mutagenic call: inactive; negative
[1]
  mutagenic call: inactive; negative
Test System: AMES SALMONELLA TYPHIMURIUM, Strain/Indicator: TA98, Metabolic Activation: RAT, LIVER, S-9, AROCLOR 1254 (5%), Method: PREINCUBATION
  mutagenic call: inactive; negative
[4]
  mutagenic call: inactive; negative
[5]
  mutagenic call: inactive; negative
[2]
  mutagenic call: inactive; negative
Test System: AMES SALMONELLA TYPHIMURIUM, Strain/Indicator: TA100, Metabolic Activation: RAT, LIVER, S-9, AROCLOR 1254 (5%), Method: PREINCUBATION
  mutagenic call: inactive; negative
[6]
  mutagenic call: inactive; negative
Test System: AMES SALMONELLA TYPHIMURIUM, Strain/Indicator: TA1535, Metabolic Activation: NONE, Method: PREINCUBATION
  mutagenic call: inactive; negative
Test System: AMES SALMONELLA TYPHIMURIUM, Strain/Indicator: TA1535, Metabolic Activation: RAT, LIVER, S-9, AROCLOR 1254 (5%), Method: PREINCUBATION
  mutagenic call: inactive; negative
Test System: AMES SALMONELLA TYPHIMURIUM, Strain/Indicator: TA1537, Metabolic Activation: NONE, Method: PREINCUBATION
  mutagenic call: inactive; negative
Test System: AMES SALMONELLA TYPHIMURIUM, Strain/Indicator: TA1537, Metabolic Activation: RAT, LIVER, S-9, AROCLOR 1254 (5%), Method: PREINCUBATION
  mutagenic call: inactive; negative
Test System: AMES SALMONELLA TYPHIMURIUM, Strain/Indicator: TA1538, Metabolic Activation: NONE, Method: PREINCUBATION
  mutagenic call: inactive; negative
Test System: AMES SALMONELLA TYPHIMURIUM, Strain/Indicator: TA1538, Metabolic Activation: RAT, LIVER, S-9, AROCLOR 1254 (5%), Method: PREINCUBATION
  mutagenic call: inactive; negative

## Nc1ccc([N+](=O)[O-])cc1[N+](=O)[O-]
End Point: IN VITRO CHROMOSOMAL ABERRATIONS, Test System: CHL CELLS, Metabolic Activation: NONE
  mutagenic call: inactive; negative
End Point: IN VITRO CHROMOSOMAL ABERRATIONS, Test System: CHL CELLS, Metabolic Activation: RAT, LIVER, S-9, SODIUM PHENOBARBITAL AND 5,6-BENZOFLAVONE
  mutagenic call: active; positive (structural changes)
End Point: IN VITRO CHROMOSOMAL ABERRATIONS, Test System: HUMAN PERIPHERAL LYMPHOCYTES, Metabolic Activation: NONE
  mutagenic call: active; positive
[3]
  mutagenic call: active; positive
[1]
  mutagenic call: active; positive
[4]
  mutagenic call: active; positive
Test System: AMES SALMONELLA TYPHIMURIUM, Strain/Indicator: TA98, Metabolic Activation: RAT, LIVER, S-9, KANECHLOR 500, Method: PREINCUBATION
  mutagenic call: active; positive
[5]
  mutagenic call: active; positive
[2]
  mutagenic call: inactive; negative
[6]
  mutagenic call: inactive; negative
Test System: AMES SALMONELLA TYPHIMURIUM, Strain/Indicator: TA100, Metabolic Activation: RAT, LIVER, S-9, KANECHLOR 500, Method: PREINCUBATION
  mutagenic call: active; positive
Test System: UDS RODENT HEPATOCYTES, Strain/Indicator: THY INCORP (NON-S-PHASE), Metabolic Activation: NONE, Method: AUTORADIOGRAPHY
  mutagenic call: inactive; negative

## O=c1cc[nH]c2ccccc12
[2]
  mutagenic call: inactive; negative
Test System: AMES SALMONELLA TYPHIMURIUM, Strain/Indicator: TA100, Metabolic Activation: RAT, LIVER, S-9, AROCLOR 1254 (10% OR 20%), Method: STANDARD PLATE
  mutagenic call: inactive; negative

## C/[N+]([O-])=N/CO
Test System: AMES SALMONELLA TYPHIMURIUM, Strain/Indicator: G46, Metabolic Activation: NONE, Method: STANDARD PLATE
  mutagenic call: active; positive
Test System: AMES SALMONELLA TYPHIMURIUM, Strain/Indicator: TA100, Metabolic Activation: RAT, LIVER, S-9, KC500 OR PHENOBARBITAL, Method: LIQUID SUSPENSION
  mutagenic call: active; positive
Test System: AMES SALMONELLA TYPHIMURIUM, Strain/Indicator: TA1535, Metabolic Activation: RAT, LIVER, S-9, KC500 OR PHENOBARBITAL, Method: LIQUID SUSPENSION
  mutagenic call: active; positive
Test System: CHINESE HAMSTER V-79, Strain/Indicator: V-79/OUABAIN, Metabolic Activation: NONE, Method: STANDARD PLATE
  mutagenic call: active; positive

## COc1cc([C@H]2OC[C@H]3[C@@H]2CO[C@@H]3c2cc(OC)c(OC)c(OC)c2)cc(OC)c1OC
Test System: AMES SALMONELLA TYPHIMURIUM, Strain/Indicator: TA97A, Metabolic Activation: NONE, Method: STANDARD PLATE
  mutagenic call: inactive; negative
Test System: AMES SALMONELLA TYPHIMURIUM, Strain/Indicator: TA97A, Metabolic Activation: RAT LIVER S-9 (AROCLOR), Method: STANDARD PLATE
  mutagenic call: inactive; negative
[1]
  mutagenic call: inactive; negative
Test System: AMES SALMONELLA TYPHIMURIUM, Strain/Indicator: TA98, Metabolic Activation: RAT LIVER S-9 (AROCLOR), Method: STANDARD PLATE
  mutagenic call: inactive; negative
[2]
  mutagenic call: inactive; negative
Test System: AMES SALMONELLA TYPHIMURIUM, Strain/Indicator: TA100, Metabolic Activation: RAT LIVER S-9 (AROCLOR), Method: STANDARD PLATE
  mutagenic call: inactive; negative
Test System: AMES SALMONELLA TYPHIMURIUM, Strain/Indicator: TA102, Metabolic Activation: NONE, Method: STANDARD PLATE
  mutagenic call: inactive; negative
Test System: AMES SALMONELLA TYPHIMURIUM, Strain/Indicator: TA102, Metabolic Activation: RAT LIVER S-9 (AROCLOR), Method: STANDARD PLATE
  mutagenic call: inactive; negative
Test System: AMES SALMONELLA TYPHIMURIUM, Strain/Indicator: TA1535, Metabolic Activation: NONE, Method: STANDARD PLATE
  mutagenic call: inactive; negative
Test System: AMES SALMONELLA TYPHIMURIUM, Strain/Indicator: TA1535, Metabolic Activation: RAT LIVER S-9 (AROCLOR), Method: STANDARD PLATE
  mutagenic call: inactive; negative

## CC(O)CC(=O)Nc1ccc(O)cc1 (centres undefined)
Test System: AMES SALMONELLA TYPHIMURIUM, Strain/Indicator: TA100, Metabolic Activation: HAMSTER, LIVER, S-9, KANECHLOR 400, Method: PREINCUBATION
  mutagenic call: inactive; negative
[5]
  mutagenic call: inactive; negative

## CC(Br)C(N)=O (centres undefined)
Test System: AMES SALMONELLA TYPHIMURIUM, Strain/Indicator: TA100, Metabolic Activation: MOUSE, LIVER, S-9, AROCLOR 1254, Method: STANDARD PLATE
  mutagenic call: active; positive
[2]
  mutagenic call: active; positive
